The values that follow come from PMC4154712 (Journal of medicinal chemistry, 2014).

One data set has as its system tubulin. Kind of data set: Tubulin assembly. Format: biochemical. Particulars: for IC50: read-out: Tubulin Assembly IC50 ± SD, tubulin at 10 μM.
The subject of the next data set is HeLa cells. Briefly: Cell cycle analysis in HeLa cells. Format: cell-based, human. Conditions: 24 h; for cell cycle arrest, in words: 20 nM; for cell cycle arrest (G2/M accumulation), in words: 100 nM.
Data set [1] has as its system HCT116 (human colon carcinoma cells). Conditions: read-out: IC50 ± SD HCT116; ref 10b; cited from earlier work.
Data set [2] deals with A549 (human lung carcinoma) cells. Conditions: read-out: IC50 ± SD A549; MTT method; 48 h; ref 10b; cited from earlier work.
Data set [3] has as its system human liver hepatocellular carcinoma cell line HepG2. Briefly: Growth inhibition of HepG2 cells. Format: cell-based. Particulars: HepG2, 48 h, read-out: IC50 ± SD HepG2.
The subject of the next data set is RD cells. Kind of data set: Cell cycle analysis in RD cells. Particulars: lowest concentration (500 nM), 24 h. Format: cell-based.
For the next data set, the system named is HepG2 cells. Kind of data set: Cell cycle analysis in HepG2 cells. Format: cell-based, human. Conditions: HepG2, lowest concentration (500 nM), 24 h.
Another data set concerns PC-3 cells. Briefly: Cell cycle analysis in PC-3 cells. Format: cell-based, human. Particulars: PC-3, lowest concentration (500 nM), 24 h.
A further data set in a line: in vitro. Conditions: human, Caco-2.
The test system of data set [4] is MCF-7 human breast carcinoma cells. Briefly: cells. Conditions: MCF7, 96 h, read-out: MCF-7 IC50 ± SD.
Data set [5] has as its system HeLa (human cervical carcinoma) cells. Particulars: read-out: IC50 ± SD HeLA; MTT method; 48 h; ref 10b; cited from earlier work.
The subject of data set [6] is HT29 (human colon adenocarcinoma) cells. Conditions: read-out: IC50 ± SD HT-29; MTT method; 48 h; ref 10b; cited from earlier work. Background: Tetrazolium assays rely on reduction of a dye to a coloured formazan, in cell work by metabolically active cells.

In general, IC50 refers to the concentration that inhibits the measured activity by half. Broadly, the Papp is the rate of passage across a membrane or cell layer, normalised by area and donor concentration. A higher Papp goes with fast passage. As usually defined, the efflux ratio is a quotient of directional permeabilities that is used to spot active efflux.

Consider `COc1cc(C(=O)c2ccn(-c3ccc(C)cc3)c2)cc(OC)c1OC` [Compound 34, (1-(4-Tolyl)-1H-pyrrol-3-yl)(3,4,5-trimethoxyphenyl)methanone], for which the IC50 in the data set on tubulin was at most 1000 nM.

On to `COc1cc(C(=O)c2ccn(-c3ccccc3)c2)cc(OC)c1OC` [Compound 4, (1-Phenyl-1H-pyrrol-3-yl)-(3,4,5-trimethoxyphenyl)methanone], for which, in the data set with HeLa cells, the “cell cycle arrest, in words” value is “only a minimal effect” and the “cell cycle arrest (G2/M accumulation), in words” value is recorded as “effectively arrested cell cycle progression”.

Consider `COc1cc(C(=O)c2ccn(C)c2)cc(OC)c1OC` [Compound 10, (1-Methyl-1H-pyrrol-3-yl)(3,4,5-trimethoxyphenyl)methanone], for which the “effect on tubulin polymerization (in words)” value (from here on “effect”) in the data set on tubulin is given as “did not inhibit tubulin assembly”.

For the compound `COc1cc(-n2ccc(C(=O)c3ccccc3)c2)cc(OC)c1OC` [Compound 50, Phenyl(1-(3,4,5-trimethoxyphenyl)-1H-pyrrol-3-yl)methanone], the IC50 with tubulin is over 20000 nM.

On to “(3-Isopropoxy-4-methoxyphenyl)(1-(3,4,5-trimethoxyphenyl)-1H-pyrrol-3-yl)methanone [Compound 52]”, for which, in the data set on tubulin, the IC50 was over 20000 nM.

For `COc1ccc(-n2ccc(C(=O)c3cc(OC)c(OC)c(OC)c3)c2)cc1[N+](=O)[O-]` [Compound 45, (1-(4-Methox y-3-ni tro phenyl)-1H-pyrrol-3-yl)(3,4,5-trimethoxyphenyl)methanone], in the data set on tubulin, the IC50 was found to be 15000 ± 70 nM.

With `COc1ccc(/C=C\c2cc(OC)c(OC)c(OC)c2)cc1O` [Compound 2, combretastatin A-4], the IC50 in data set [1] was 5 ± 0.4 nM; in data set [2], over 10000 nM.

For `COc1cc(C(=O)c2ccn(-c3cccc(NS(C)(=O)=O)c3)c2)cc(OC)c1OC` [Compound 28, N-(3-(3-(3,4,5-Trimethoxybenzoyl)-1H-pyrrol-1-yl)phenyl)-methanesulfonamide], in the data set with tubulin, the IC50 is at most 1000 nM.

For `CC(=O)O[C@H]1C(=O)[C@@]2(C)[C@H]([C@H](OC(=O)c3ccccc3)[C@]3(O)C[C@H](OC(=O)[C@H](O)[C@@H](NC(=O)c4ccccc4)c4ccccc4)C(C)=C1C3(C)C)[C@]1(OC(C)=O)CO[C@@H]1C[C@@H]2O` [PTX, paclitaxel], the results for the IC50 in [3] and in data set [2] were 2037 ± 2 nM and 7 ± 2 nM, respectively.

Turning to `COc1cc(C(=O)c2ccn(-c3ccccc3[N+](=O)[O-])c2)cc(OC)c1OC` [Compound 18, (1-(2-Nitrophenyl)-1H-pyrrol-3-yl)(3,4,5-trimethoxyphenyl)-methanone], the IC50 with tubulin was over 20000 nM.

In the case of `COc1cc(C(=O)c2ccn(-c3cccc(N)c3)c2)cc(OC)c1OC` [Compound 22, (1-(3-Aminophenyl)-1H-pyrrol-3-yl)(3,4,5-trimethoxyphenyl)-methanone], the “cell cycle arrest, in words” value in the data set with RD cells is “effectively arrested cell cycle progression”; in the data set on HepG2 cells, “effectively arrested cell cycle progression”; with HeLa cells it was “as effective as VBL and 2”; with PC-3 cells it was “effectively arrested cell cycle progression”. Also, the “cell cycle arrest (G2/M accumulation), in words” value in the data set on HeLa cells is listed as “effectively arrested cell cycle progression”. The compound also yielded a Papp in the data set “in vitro” of over 5 ×10⁻⁶ cm/s. Moreover, the efflux ratio in “in vitro” is under 2.

Turning to `COc1cc(C(=O)c2ccn(-c3ccccc3F)c2)cc(OC)c1OC` [Compound 15, (1-(2-Fluorophenyl)-1H-pyrrol-3-yl)(3,4,5-trimethoxyphenyl)-methanone], the IC50 with tubulin is at most 1000 nM.

Consider `COc1cc(C(=O)c2ccn(-c3cccc(C)c3)c2)cc(OC)c1OC` [Compound 33, (1-(3-Tolyl)-1H-pyrrol-3-yl)(3,4,5-trimethoxyphenyl)methanone], for which the IC50 with tubulin was at most 1000 nM.

Consider `CNc1cccc(-n2ccc(C(=O)c3cc(OC)c(OC)c(OC)c3)c2)c1` [Compound 24, (1-(3-(Methylamino)phenyl)-1H-pyrrol-3-yl)(3,4,5-trimethoxyphenyl)methanone], for which the IC50 in the data set on tubulin was at most 1000 nM.

With `COc1cc(C(=O)c2ccn(-c3cccc(OCc4ccccc4)c3)c2)cc(OC)c1OC` [Compound 41, (1-(3-(Benzyloxy)phenyl)-1H-pyrrol-3-yl)(3,4,5-trimethoxyphenyl)methanone], the IC50 with tubulin was over 20000 nM.

Consider `COc1cc(C(=O)c2ccn(-c3cccc([N+](=O)[O-])c3)c2)cc(OC)c1OC` [Compound 19, (1-(3-Nitrophenyl)-1H-pyrrol-3-yl)(3,4,5-trimethoxyphenyl)-methanone], for which, in data set [4], the IC50 amounted to 230 ± 60 nM.

With `CC[C@]1(O)C[C@@H]2CN(CCc3c([nH]c4ccccc34)[C@@](C(=O)OC)(c3cc4c(cc3OC)N(C)[C@H]3[C@@](O)(C(=O)OC)[C@H](OC(C)=O)[C@]5(CC)C=CCN6CC[C@]43[C@@H]65)C2)C1` [VBL, vinblastine], the values for the IC50 in [5], in data set [2] and in data set [6] were 10 ± 0.6 nM, 20 ± 2 nM and 30 ± 0.8 nM, respectively.

Turning to `COc1cc(C(=O)c2ccn(-c3ccc([N+](=O)[O-])cc3)c2)cc(OC)c1OC` [Compound 20, (1-(4-Nitrophenyl)-1H-pyrrol-3-yl)(3,4,5-trimethoxyphenyl)-methanone], the IC50 with tubulin is over 20000 nM.

As for `COc1cc(C(=O)c2ccn(-c3cccc(N4CCCCC4)c3)c2)cc(OC)c1OC` [Compound 31, (1-(3-(Piperidin-1-yl)phenyl)-1H-pyrrol-3-yl)(3,4,5-trimethoxyphenyl)methanone], the IC50 with tubulin is over 20000 nM.

`CC[C@]1(O)C[C@H]2CN(CCc3c([nH]c4ccccc34)[C@@](C(=O)OC)(c3cc4c(cc3OC)N(C=O)[C@H]3[C@@](O)(C(=O)OC)[C@H](OC(C)=O)[C@]5(CC)C=CCN6CC[C@]43[C@@H]65)C2)C1` [VCR, vincristine]: the IC50 in data set [3] came to 177 ± 1.6 nM.

With `COc1ccc(C(=O)c2ccn(-c3cc(OC)c(OC)c(OC)c3)c2)cc1OC(C)C` [Compound 53, (3-Isopropoxy-4-methoxyphenyl)(1-(3,4,5-trimethoxyphenyl)-1H-pyrrol-3-yl)methanone], the IC50 with tubulin was over 20000 nM.

In the case of `COc1cc(C(=O)c2cc[nH]c2)cc(OC)c1OC` [Compound 9, (1H-Pyrrol-3-yl)(3,4,5-trimethoxyphenyl)methanone], the “effect” value in the data set with tubulin was “did not inhibit tubulin assembly”.

Regarding `COc1cc(C(=O)c2ccn(-c3cccc(NC(=N)N)c3)c2)cc(OC)c1OC.Cl` [Compound 27, 1-(3-(3-(3,4,5-Trimethoxybenzoyl)-1H-pyrrol-1-yl)phenyl)-guanidine Hydrochloride], the “cell cycle arrest, in words” value in the data set on RD cells, in the data set on HepG2 cells and with PC-3 cells was “effectively arrested cell cycle progression” each time.

As to `O=C(c1ccccc1)c1ccn(-c2ccccc2)c1` [Compound 11, Phenyl(1-phenyl-1H-pyrrol-3-yl)methanone], in the data set on tubulin, the “effect” value is “did not inhibit tubulin assembly” and the IC50 was over 20000 nM.

As to `COc1cc(C(=O)c2ccn(-c3ccc(OC(C)C)cc3)c2)cc(OC)c1OC` [Compound 40, (1-(4-Isopropoxyphenyl)-1H-pyrrol-3-yl)(3,4,5-trimethoxyphenyl)-methanone], the IC50 with tubulin is over 20000 nM.
